US7888363B2, “Viral polymerase inhibitors” (Boehringer Ingelheim International GmbH, priority 2003, dated 2011)

Target: hepatitis C virus RNA dependant polymerase (NS5B) (Hepatitis C virus genotype 1b, UniProt P26663)
Assay: Inhibition of NS5B RNA dependent RNA polymerase activity
Assay type: biochemical
Method: A suitable assay is described in the examples.
Inhibition of NS5B RNA Dependent RNA Polymerase Activity
The compounds of the invention were tested for inhibitory activity against the hepatitis C virus RNA dependant polymerase (NS5B), according to protocol described in WO 03/010141

hepatitis C virus RNA dependant polymerase (NS5B), sequence (P26663 2420-3010): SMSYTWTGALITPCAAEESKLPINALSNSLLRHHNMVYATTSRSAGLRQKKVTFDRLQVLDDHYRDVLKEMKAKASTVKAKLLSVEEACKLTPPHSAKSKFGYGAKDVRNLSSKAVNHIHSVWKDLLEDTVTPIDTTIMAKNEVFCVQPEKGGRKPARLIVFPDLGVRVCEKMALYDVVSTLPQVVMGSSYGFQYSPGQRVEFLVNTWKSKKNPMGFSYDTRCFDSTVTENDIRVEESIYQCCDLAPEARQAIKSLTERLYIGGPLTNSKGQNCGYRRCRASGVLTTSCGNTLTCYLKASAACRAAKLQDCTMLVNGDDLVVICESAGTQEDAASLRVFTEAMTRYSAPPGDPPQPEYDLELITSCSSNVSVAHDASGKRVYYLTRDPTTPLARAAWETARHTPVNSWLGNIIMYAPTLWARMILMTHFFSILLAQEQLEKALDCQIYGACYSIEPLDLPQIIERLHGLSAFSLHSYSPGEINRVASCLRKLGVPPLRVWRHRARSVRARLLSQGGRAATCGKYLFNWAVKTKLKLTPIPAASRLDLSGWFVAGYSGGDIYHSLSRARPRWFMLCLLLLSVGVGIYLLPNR

Row | SMILES | IC50 (Table 4, class ranges) [nM] | IC50 (Table 1, HCV NS5B polymerase) [nM] | other results
1 | CNC(=O)Cn1c(-c2ccccn2)c(C2CCCCC2)c2ccc(C(=O)O)cc21 [Example 1143] |  | 1000 to 10000 | 
2 | O=C(NC1(C(=O)O)COCOC1)c1ccc2c(C3CCCCC3)c(-c3ccoc3)n(CC(=O)N3CCOCC3)c2c1 [Example 4083] | < 200 |  | 
3 | CC(C)(NC(=O)Cn1c(-c2ccoc2)c(C2CCCCC2)c2ccc(C(=O)O)cc21)C(=O)Nc1ccc(-c2ccc(C(=O)O)o2)cc1 [Example 1053] |  | < 200 | 
4 | CCCN(CCOC)C(=O)Cn1c(-c2ccoc2)c(C2CCCCC2)c2ccc(C(=O)O)cc21 [Example 1015] |  | 200 to 1000 | 
5 | O=C(O)CN1CCN(C(=O)Cn2c(-c3ccc(Br)cn3)c(C3CCCCC3)c3ccc(C(=O)O)cc32)CC1 [Example 1139] |  | < 200 | 
6 | O=C(Cn1c(-c2ccoc2)c(C2CCCCC2)c2ccc(C(=O)O)cc21)NNC(=O)NC[C@H]1CC[C@H](C(=O)O)CC1 [Example 1076] |  | < 200 | 
7 | CN(C)C(=O)[C@@H]1CCCN1C(=O)Cn1c(-c2ccoc2)c(C2CCCCC2)c2ccc(C(=O)O)cc21 [Example 1122] |  | < 200 | 
8 | CC(CNC(=O)c1ccc2c(c1)c(C1CCCCC1)c(-c1ccoc1)n2CC(=O)N1CCC(N2CCCC2)CC1)c1ccccc1 (stereo not drawn) [Example 7030] |  |  | IC50 (Table 7, class ranges): 1000 to 10000 nM
9 | CN(CCc1ccncc1)C(=O)Cn1c(-c2ccoc2)c(C2CCCCC2)c2ccc(C(=O)O)cc21 [Example 1004] |  | < 200 | 
10 | CC(C)[C@@H](C(=O)O)N(C)C(=O)Cn1c(-c2ccoc2)c(C2CCCCC2)c2ccc(C(=O)O)cc21 [Example 1129] |  | < 200 | 
11 | CN(C)C(=O)Cn1c(-c2ccoc2)c(C2CCCCC2)c2cc(C(=O)O)ccc21 [Example 6003] |  |  | IC50 (Table 6, HCV NS5B polymerase): 200 to 1000 nM
12 | O=C(NS(=O)(=O)c1ccc(Br)cc1)c1ccc2c(C3CCCCC3)c(-c3ccoc3)n(CC(=O)N3CCOCC3)c2c1 [Example 2008] |  |  | IC50 (Table 2, HCV NS5B polymerase): < 200 nM
13 | O=C(NC(CCO)c1ccccc1)c1ccc2c(c1)c(C1CCCCC1)c(-c1ccoc1)n2CC(=O)N1CCC(N2CCCC2)CC1 (stereo not drawn) [Example 7049] |  |  | IC50 (Table 7, class ranges): 1000 to 10000 nM
14 | O=C(O)c1ccc2c(C3CCCCC3)c(-c3cc4ccccc4s3)n(CC(=O)N3CCC(N4CCCC4)CC3)c2c1 [Example 1049] |  | 200 to 1000 | 
15 | O=C(NC1CCN(Cc2ccccc2)C1)c1ccc2c(c1)c(C1CCCCC1)c(-c1ccoc1)n2CC(=O)N1CCC(N2CCCC2)CC1 (stereo not drawn) [Example 7040] |  |  | IC50 (Table 7, class ranges): 1000 to 10000 nM
16 | O=C(O)c1ccc2c(C3CCCCC3)c(-c3ccccn3)n(CC(=O)N3CCCCC3)c2c1 [Example 1085] |  | 200 to 1000 | 
17 | O=C(Cn1c(-c2ccoc2)c(C2CCCCC2)c2ccc(C(=O)O)cc21)NCc1ccccc1 [Example 1063] |  | 200 to 1000 | 
18 | COC(=O)C(Cc1ccc(O)cc1)NC(=O)c1ccc2c(c1)c(C1CCCCC1)c(-c1ccoc1)n2CC(=O)N1CCC(N2CCCC2)CC1 (stereo not drawn) [Example 7057] |  |  | IC50 (Table 7, class ranges): 1000 to 10000 nM
19 | O=C(O)CC(NC(=O)c1ccc2c(c1)c(C1CCCCC1)c(-c1ccoc1)n2CC(=O)N1CCC(N2CCCC2)CC1)C(F)(F)F (stereo not drawn) [Example 7051] |  |  | IC50 (Table 7, class ranges): 1000 to 10000 nM

Row | SMILES | IC50 (Table 4, class ranges) [nM] | IC50 (Table 1, HCV NS5B polymerase) [nM] | other results
20 | O=C(NS(=O)(=O)c1c(Cl)nc2sccn12)c1ccc2c(C3CCCCC3)c(-c3ccoc3)n(CC(=O)N3CCOCC3)c2c1 [Example 2037] |  |  | IC50 (Table 2, HCV NS5B polymerase): < 200 nM
21 | O=C(Cn1c(-c2ccc(Br)cn2)c(C2CCCCC2)c2ccc(C(=O)O)cc21)N[C@@H](Cc1c[nH]c2cc(O)ccc12)C(=O)O [Example 1140] |  | 200 to 1000 | 
22 | O=C(N[C@H]1CC[C@H](O)CC1)c1ccc2c(c1)c(C1CCCCC1)c(-c1ccoc1)n2CC(=O)N1CCC(N2CCCC2)CC1 [Example 7041] |  |  | IC50 (Table 7, class ranges): 1000 to 10000 nM
23 | O=C(O)/C=C/c1ccc(NC(=O)C2(NC(=O)c3ccc4c(C5CCCCC5)c(-c5ccccn5)n(CC(=O)N5CCCC5)c4c3)CCC2)cc1 [Example 3008] |  |  | IC50 (Table 3, HCV NS5B polymerase): < 200 nM
24 | Nc1nc(-c2ccc(NC(=O)C3(NC(=O)c4ccc5c(C6CCCC6)c(-c6ccoc6)n(CC(=O)N6CCOCC6)c5c4)CCCNC3)cc2)cs1 (stereo not drawn) [Example 3001] |  |  | IC50 (Table 3, HCV NS5B polymerase): < 200 nM
25 | CC(C)N(C(=O)Cn1c(-c2ccoc2)c(C2CCCCC2)c2ccc(C(=O)O)cc21)C(C)C [Example 1108] |  | 200 to 1000 | 
26 | O=C(O)CCc1cccc(NC(=O)c2ccc3c(c2)c(C2CCCCC2)c(-c2ccoc2)n3CC(=O)N2CCC(N3CCCC3)CC2)c1 [Example 7056] |  |  | IC50 (Table 7, class ranges): 1000 to 10000 nM
27 | O=C(O)c1ccc2c(C3CCCCC3)c(-c3csc(N4CCCCC4)n3)n(CC(=O)N3CCOCC3)c2c1 [Example 1040] |  | 200 to 1000 | 
28 | CN(C(=O)c1ccc2c(C3CCCCC3)c(-c3ccoc3)n(CC(=O)N3CCOCC3)c2c1)S(=O)(=O)c1ccccc1 [Example 2023] |  |  | IC50 (Table 2, HCV NS5B polymerase): 1000 to 10000 nM
29 | O=C(NC1(c2csc(Cc3ccccc3)n2)CCC1)c1ccc2c(C3CCCCC3)c(-c3ccoc3)n(CC(=O)N3CCC(N4CCCC4)CC3)c2c1 [Example 4104] | 1000 to 10000 |  | 
30 | COC(=O)C(Cc1ccc(Cl)cc1)NC(=O)c1ccc2c(c1)c(C1CCCCC1)c(-c1ccoc1)n2CC(=O)N1CCC(N2CCCC2)CC1 (stereo not drawn) [Example 7060] |  |  | IC50 (Table 7, class ranges): 1000 to 10000 nM
31 | CNC(=O)C1(NC(=O)c2ccc3c(C4CCCCC4)c(-c4ccoc4)n(CC(=O)N4CCC(N5CCCC5)CC4)c3c2)CCC1 [Example 4089] | < 200 |  | 
32 | O=C(Cn1c(-c2ccc(Br)cn2)c(C2CCCCC2)c2ccc(C(=O)O)cc21)N[C@@H](Cc1ccc(O)cc1)C(=O)O [Example 1133] |  | 200 to 1000 | 
33 | COc1cc2c(C3CCCCC3)c(-c3ccoc3)n(CC(=O)N3CCOCC3)c2cc1C(=O)O [Example 7002] |  |  | IC50 (Table 7, class ranges): 200 to 1000 nM
34 | O=C(O)/C=C/c1ccc(NC(=O)C2(NC(=O)c3ccc4c(C5CCCCC5)c(-c5ccccn5)n(CC(=O)N5CCCCC5)c4c3)CCC2)cc1 [Example 3009] |  |  | IC50 (Table 3, HCV NS5B polymerase): < 200 nM
35 | O=C(O)c1ccc2c(C3CCCCC3)c(-c3ccco3)n(CC(=O)N3CCOCC3)c2c1 [Example 1030] |  | < 200 | 
36 | O=C(O)c1ccc(CNC(=O)c2ccc3c(c2)c(C2CCCCC2)c(-c2ccoc2)n3CC(=O)N2CCC(N3CCCC3)CC2)cc1 [Example 7045] |  |  | IC50 (Table 7, class ranges): 1000 to 10000 nM
37 | Cc1noc(C)c1S(=O)(=O)NC(=O)c1ccc2c(C3CCCCC3)c(-c3ccoc3)n(CC(=O)N3CCOCC3)c2c1 [Example 2034] |  |  | IC50 (Table 2, HCV NS5B polymerase): < 200 nM

Now from value to compound, other results behind:

Row | IC50 (Table 4, class ranges) [nM] | IC50 (Table 1, HCV NS5B polymerase) [nM] | SMILES | other results
38 | < 200 |  | O=C(NCc1ccc(O)c(O)c1)c1ccc2c(C3CCCCC3)c(-c3ccoc3)n(CC(=O)N3CCOCC3)c2c1 [Example 4062] | 
39 | 200 to 1000 |  | CC(C)(NC(=O)c1ccc2c(C3CCCCC3)c(-c3ccoc3)n(CC(=O)N3CCC(N4CCCC4)CC3)c2c1)c1ccccc1 [Example 4060] | 
40 |  | 200 to 1000 | CC(C)CN(C)C(=O)Cn1c(-c2ccoc2)c(C2CCCCC2)c2ccc(C(=O)O)cc21 [Example 1006] | 
41 | < 200 |  | CNC(=O)C(C)(C)NC(=O)c1ccc2c(C3CCCCC3)c(-c3ccoc3)n(CC(=O)N3CCC(N4CCCC4)CC3)c2c1 [Example 4084] | 
42 | < 200 |  | COc1cccc([C@@H](C)NC(=O)c2ccc3c(C4CCCCC4)c(-c4ccoc4)n(CC(=O)N4CCN(C)CC4)c3c2)c1 [Example 4042] | 
43 | 200 to 1000 |  | CNC(=O)c1ccc2c(C3CCCCC3)c(-c3ccoc3)n(CC(=O)N(C)C)c2c1 [Example 4056] | 
44 | 200 to 1000 |  | CC(C)Nc1nc(C2(NC(=O)c3ccc4c(C5CCCCC5)c(-c5ccoc5)n(CC(=O)N5CCC(N6CCCC6)CC5)c4c3)CCC2)cs1 [Example 4105] | 
45 | < 200 |  | COc1cc(CNC(=O)c2ccc3c(C4CCCCC4)c(-c4ccoc4)n(CC(=O)N4CCN(C)CC4)c3c2)ccc1O [Example 4030] | 
46 | < 200 |  | Cn1c(C2(NC(=O)c3ccc4c(C5CCCCC5)c(-c5ccoc5)n(CC(=O)N5CCOCC5)c4c3)CCC2)nc2ccc(C=CC(=O)O)cc21 [Example 4082] | 
47 | < 200 |  | COc1ccc(CNC(=O)c2ccc3c(C4CCCCC4)c(-c4ccoc4)n(CC(=O)N4CCC(N5CCCC5)CC4)c3c2)cc1OC [Example 4004] | 
48 | 200 to 1000 |  | CN1CCN(C(=O)Cn2c(-c3ccoc3)c(C3CCCCC3)c3ccc(C(=O)NCCN4CCOCC4)cc32)CC1 [Example 4014] | 
49 | 200 to 1000 |  | CNC(=O)c1ccc2c(C3CCCCC3)c(-c3ccoc3)n(CC(=O)N3CCOCC3)c2c1 [Example 4049] | 
50 |  | 200 to 1000 | CN(C)c1ccc(NC(=O)Cn2c(-c3ccoc3)c(C3CCCCC3)c3ccc(C(=O)O)cc32)cc1 [Example 1105] | 
51 | < 200 |  | CC(=O)Nc1nc(C2(NC(=O)c3ccc4c(C5CCCCC5)c(-c5ccoc5)n(CC(=O)N5CCC(N6CCCC6)CC5)c4c3)CCC2)cs1 [Example 4102] | 
52 | < 200 |  | Cc1nc(C2(NC(=O)c3ccc4c(C5CCCCC5)c(-c5ccoc5)n(CC(=O)N5CCC(N6CCCC6)CC5)c4c3)CCC2)cs1 [Example 4099] | 
53 | 200 to 1000 |  | CN1CCN(C(=O)Cn2c(-c3ccoc3)c(C3CCCCC3)c3ccc(C(=O)NCc4ccco4)cc32)CC1 [Example 4011] | 
54 | 200 to 1000 |  | CN1CCN(C(=O)Cn2c(-c3ccoc3)c(C3CCCCC3)c3ccc(C(=O)NC4CCN(Cc5ccccc5)C4)cc32)CC1 (stereo not drawn) [Example 4036] | 
55 | 200 to 1000 |  | C[C@@H](NC(=O)c1ccc2c(C3CCCCC3)c(-c3ccoc3)n(CC(=O)N3CCN(C)CC3)c2c1)c1ccccc1 [Example 4039] | 
56 |  | < 200 | CS(=O)(=O)c1ccc(CNC(=O)Cn2c(-c3ccoc3)c(C3CCCCC3)c3ccc(C(=O)O)cc32)cc1 [Example 1127] | 
57 | 200 to 1000 |  | CC(C)C(CO)NC(=O)c1ccc2c(C3CCCCC3)c(-c3ccoc3)n(CC(=O)N3CCN(C)CC3)c2c1 (stereo not drawn) [Example 4012] | 
58 | < 200 |  | CCc1nc(C2(NC(=O)c3ccc4c(C5CCCCC5)c(-c5ccoc5)n(CC(=O)N5CCC(N6CCCC6)CC5)c4c3)CCC2)cs1 [Example 4107] | 
59 | 200 to 1000 |  | CN1CCN(C(=O)Cn2c(-c3ccoc3)c(C3CCCCC3)c3ccc(C(=O)NC4(CO)CCCC4)cc32)CC1 [Example 4027] | 
60 | 200 to 1000 |  | O=C(NCc1ccccc1)c1ccc2c(C3CCCCC3)c(-c3ccoc3)n(CC(=O)N3CCOCC3)c2c1 [Example 4047] | 
61 | < 200 |  | COc1ccc([C@@H](C)NC(=O)c2ccc3c(C4CCCCC4)c(-c4ccoc4)n(CC(=O)N4CCN(C)CC4)c3c2)cc1 [Example 4043] | 
62 | < 200 |  | COc1ccc(CNC(=O)c2ccc3c(C4CCCCC4)c(-c4ccoc4)n(CC(=O)N4CCN(C)CC4)c3c2)cc1OC [Example 4003] | 
63 | 200 to 1000 |  | CN(C)C(=O)Cn1c(-c2ccoc2)c(C2CCCCC2)c2ccc(C(=O)NCc3ccccc3)cc21 [Example 4054] | 
